Test results from article PMC8908490 (ACS Omega, 2022).

Assays:
[1] = HPLC-based chemical stability at different pH; conditions: for chemical stability (in words): acidic conditions, pH 1, 37 °C
human NLRP3-NACHT domain = human NLRP3-NACHT domain (Homo sapiens, UniProt Q96P20); conditions: presence of ADP
interleukin-1β = conditions: cell-based interleukin-1β assay; cited from earlier work
[2] = cited from earlier work

Sequence of human NLRP3-NACHT domain (Q96P20 220-536 limits assumed): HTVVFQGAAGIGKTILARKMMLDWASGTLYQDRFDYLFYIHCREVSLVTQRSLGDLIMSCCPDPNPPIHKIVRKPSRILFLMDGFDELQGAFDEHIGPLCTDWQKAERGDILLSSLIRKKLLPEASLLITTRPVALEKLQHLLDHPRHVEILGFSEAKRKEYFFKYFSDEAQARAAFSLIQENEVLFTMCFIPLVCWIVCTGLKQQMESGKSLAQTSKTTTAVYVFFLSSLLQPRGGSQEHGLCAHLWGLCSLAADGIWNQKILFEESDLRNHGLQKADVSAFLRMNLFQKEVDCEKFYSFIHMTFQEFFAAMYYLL

SMILES | chemical stability (in words) [1] | further results
O=C(Nc1c2c(cc3c1CCC3)CCC2)NS(=O)(=O)c1cccs1 [Compound 4, N-((1,2,3,5,6,7-Hexahydro-s-indacen-4-yl)carbamoyl)thiophene-2-sulfonamide] |  | fold shorter half-life than benzene analogue ([1]; pH 1, 4 versus 8, 6 versus 9): 12 fold
O=C(Nc1c2c(cc3c1CCCC3)CCCC2)NS(=O)(=O)c1ccccc1 [Compound 7, N-((1,2,3,4,5,6,7,8-Octahydroanthracen-9-yl)carbamoyl)benzenesulfonamide] | similarly unstable | NLRP3 binding by SPR (in words) (human NLRP3-NACHT domain): total loss of binding ability
CC(C)(O)c1csc(S(=O)(=O)NC(=O)Nc2c3c(cc4c2CCC4)CCC3)c1 [Compound 2, N-((1,2,3,5,6,7-Hexahydro-s-indacen-4-yl)carbamoyl)-4-(2-hydroxypropan-2-yl)thiophene-2-sulfonamide] | similarly stable | 
O=C(Nc1c2c(cc3c1CCC3)CCC2)NS(=O)(=O)c1ccco1 [Compound 3, N-((1,2,3,5,6,7-Hexahydro-s-indacen-4-yl)carbamoyl)furan-2-sulfonamide] | unstable | 
CC(C)(O)c1coc(S(=O)(=O)NC(=O)Nc2c3c(cc4c2CCC4)CCC3)c1 [Compound 1, N-((1,2,3,5,6,7-Hexahydro-s-indacen-4-yl)carbamoyl)-4-(2-hydroxypropan-2-yl)furan-2-sulfonamide] |  | IC50 (interleukin-1β): 7.5 nM; plasma half-life [2]: 3.27 h
CC(C)S(=O)(=O)NC(=O)Nc1c2c(cc3c1CCC3)CCC2 [Compound 5, N-((1,2,3,5,6,7-Hexahydro-s-indacen-4-yl)carbamoyl)propane-2-sulfonamide] | unstable | 
